These results are taken from US7935722B2 (Eli Lilly and Company, priority 2005, dated 2011).

Molecules are shown by their SMILES. Like-named read-outs stand apart in the source and are kept apart here.

In assay [1] the target is T1, human AR (androgen receptor) (Homo sapiens, UniProt P10275).
T1 construct: expressed in transfected cells; host or cells: 293 cells (293-AR lysate)
T1 sequence (P10275 1-920): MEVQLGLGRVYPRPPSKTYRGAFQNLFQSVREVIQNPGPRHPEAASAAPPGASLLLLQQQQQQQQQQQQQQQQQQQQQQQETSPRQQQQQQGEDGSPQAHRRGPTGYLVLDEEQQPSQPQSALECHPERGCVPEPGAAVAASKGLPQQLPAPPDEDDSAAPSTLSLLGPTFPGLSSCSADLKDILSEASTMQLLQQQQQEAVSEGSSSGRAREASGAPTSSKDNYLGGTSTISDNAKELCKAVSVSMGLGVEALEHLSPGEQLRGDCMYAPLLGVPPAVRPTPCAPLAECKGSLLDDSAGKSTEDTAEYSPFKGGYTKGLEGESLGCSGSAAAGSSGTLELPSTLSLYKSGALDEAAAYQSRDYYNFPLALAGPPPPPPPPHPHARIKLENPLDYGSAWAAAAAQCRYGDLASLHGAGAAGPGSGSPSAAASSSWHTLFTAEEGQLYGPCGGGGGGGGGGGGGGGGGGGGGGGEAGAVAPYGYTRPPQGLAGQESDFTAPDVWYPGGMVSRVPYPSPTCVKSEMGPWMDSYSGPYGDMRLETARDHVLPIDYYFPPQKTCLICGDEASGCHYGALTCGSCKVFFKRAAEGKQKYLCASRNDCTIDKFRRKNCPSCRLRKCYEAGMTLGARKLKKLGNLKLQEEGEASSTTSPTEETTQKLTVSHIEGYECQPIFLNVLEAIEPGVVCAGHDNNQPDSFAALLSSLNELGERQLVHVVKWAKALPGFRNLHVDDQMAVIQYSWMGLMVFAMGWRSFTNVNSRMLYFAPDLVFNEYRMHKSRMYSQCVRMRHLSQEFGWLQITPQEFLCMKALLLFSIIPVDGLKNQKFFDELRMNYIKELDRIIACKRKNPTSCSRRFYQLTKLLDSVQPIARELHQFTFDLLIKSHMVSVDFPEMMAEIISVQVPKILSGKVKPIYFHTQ
As to the kind of experiment: Steroid hormone nuclear receptor binding assay, AR binding. The protocol: Cell lysates from 293 cells overexpressing human GR (glucocorticoid receptor), AR (androgen receptor), MR (mineralocorticoid receptor) or PR (progesterone receptor) are used for competition binding assays to determine Ki values for test compounds. […] Competing compounds are added at various concentrations ranging from about 0.01 nM to 10 μM. Non-specific binding is determined in the presence of 500 nM dexamethasone for GR binding, 500 nM aldosterone for MR binding, or 500 nM methyltrienolone for AR and PR binding. The binding reaction (140 μl) is incubated for overnight at 4° C., then 70 μl of cold charcoal-dextran buffer (containing per 50 ml of assay buffer, 0.75 g of charcoal and 0.25 g of dextran) is added to each reaction. Plates are mixed 8 minutes on an orbital shaker at 4° C. Plates are then centrifuged at 3,000 rpm at 4° C. for 10 minutes. An aliquot of 120 μl of the mix is transferred to another 96-well plate and 175 μl of Wallac Optiphase “Hisafe 3” scintillation fluid is added to each well. Plates are sealed and shaken vigorously on an orbital shaker. After an incubation of 2 hrs, plates are read in a Wallac Microbeta counter. […] The Kd for ^3H-dexamethasone for GR binding, ^3H-methyltrienolone for AR binding, ^3H-aldosterone for MR binding, or ^3H-methyltrienolone for PR binding, is determined by saturation binding. The IC50 values for test compounds are converted to Ki using Cheng-Prusoff equation and the Kd determined by saturation binding assay. […]

Assay [2] concerns the target T2, human androgen receptor (AR) (Homo sapiens, UniProt P10275).
T2 construct: expressed in transfected cells; host or cells: mouse myoblast C2C12 cells, transiently co-transfected
T2 sequence (P10275 1-920): T1 sequence (P10275 1-920)
As to the kind of experiment: C2C12 AR/ARE reporter assay. Format: cell-based. Here is the method: As an indicator of agonist activity in muscle tissue, the C2C12 AR/ARE reporter assay is performed. Briefly, mouse myoblast C2C12 cells are co-transfected using FuGENE™. […] Cells are transfected in T150 cm^2 flasks in DMEM media with 4% or 10% Fetal Bovine Serum […]. After a 5 hour incubation, transfected cells are trypsinized, plated in 96 well dishes in DMEM media containing 10% charcoal-stripped FBS, incubated for 2 h and then exposed to various concentrations of test compounds ranging from about 0.01 nM to 10 μM. After 48 h of incubations with compounds, cells are lysed and luciferase activity is determined using standard techniques. Data is fit to a 4 parameter-fit logistics to determine EC50 values. The % efficacy is determined versus maximum stimulation obtained with 10 nM methyltrienolone. […]

Where [3] appears, read: C2C12, read-out: C2C12 % Efficacy.
[4] abbreviates: average of n trials, read-out: AR binding Ki.
[5] abbreviates: C2C12 AR/ARE reporter assay, average of n trials, read-out: C2C12 % Efficacy.
Where [6] appears, read: C2C12 AR/ARE reporter assay, average of n trials, read-out: C2C12 EC50.

As for `COc1ccccc1Cn1c2c(c3cc(C#N)ccc31)CC(NC(=O)C(C)C)CC2` (stereo not drawn) [Example 105, N-[6-Cyano-9-(2-methoxy-benzyl)-2,3,4,9-tetrahydro-1H-carbazol-3-yl]-isobutyramide], in assay [1], the affinity, expressed as Ki, was 0.0077 µM. Moreover, the EC50 – broadly, the concentration that produces a half-maximal response – in assay [2] was 0.0307 µM. Moreover, the Emax in assay [2] (setting [3]) stood at 97.5%.

For the compound `CC(C)C(=O)NC1CCc2c(c3cc(Cl)ccc3n2Cc2ccccc2N)C1` (stereo not drawn) [Example 106, N-[9-(2-Amino-benzyl)-6-chloro2,3,4,9-tetrahydro-1H-carbazol-3-yl]-isobutyramide], the inhibitory constant (Ki) (commonly the dissociation constant of the complex between target and ligand, obtained from inhibition or displacement) in assay [1] (setting [4]) turned out to be 0.0082 µM. In addition, the Emax in assay [2] (setting [5]) was 82.1%. Also, the EC50 in assay [2] (setting [6]) came out at 0.0023 µM.

On to `CC(C)C(=O)NC1CCc2c(c3cc(C#N)ccc3n2Cc2ccccc2O)C1` (stereo not drawn) [Example 107, N-[6-Cyano-9-(2-hydroxy-benzyl)-2,3,4,9-tetrahydro-1H-carbazol-3-yl]-isobutyrarmide], for which the Ki in assay [1] amounted to 0.0031 µM. Besides, it took 0.0005 µM to reach a half-maximal effect in assay [2] (EC50). In assay [2] (setting [3]), the Emax turned out to be 86.2%.

Compound `CC(C)C(=O)NC1CCc2c(c3cc(C#N)ccc3n2Cc2ccccc2[N+](=O)[O-])C1` (stereo not drawn) [Example 108, N-[6-Cyano-9-(2-nitro-benzyl)-2,3,4,9-tetrahydro-1H-carbazol-3-yl]-isobutyramide] yielded a Ki in assay [1] of 0.0573 µM. The compound further returned a 50% effective concentration (EC50) in assay [2] of 0.718 µM. The Emax in assay [2] (setting [3]) came out at 58.4%.

`CC(C)C(=O)NC1CCc2c(c3cc(C#N)ccc3n2Cc2ccccc2N)C1` (stereo not drawn) [Example 109, N-[9-(2-Amino-benzyl)-6-cyano-2,3,4,9-tetrahydro-1H-carbazol-3-yl]-isobutyramide] showed an inhibitory constant (Ki) in assay [1] of 0.0159 µM. This compound also displayed a concentration giving a half-maximal response (EC50) in assay [2] of 0.0023 µM. Further, in assay [2] (setting [3]), the Emax is 76.9%.

In turn, `CCNc1ccccc1Cn1c2c(c3cc(C#N)ccc31)CC(NC(=O)C(C)C)CC2` (stereo not drawn) [Example 112, N-[6-Cyano-9-(2-ethylamino-benzyl)-2,3,4,9-tetrahydro-1H-carbazol-3-yl]-isobutyramide] displayed an inhibition constant (Ki) in assay [1] of 0.0127 µM. Moreover, the EC50 in assay [2] is 0.0272 µM. The Emax in assay [2] (setting [3]) amounted to 101%.

For the compound `CC(C)C(=O)NC1CCc2c(c3cc(C#N)ccc3n2Cc2ccccc2NS(C)(=O)=O)C1` (stereo not drawn) [Example 113, N-[6-Cyano-9-(2-methanesulfonylamino-benzyl)-2,3,4,9-tetrahydro-1H-carbazol-3-yl]-isobutyramide], in assay [1], affinity was put at a Ki of 0.0214 µM. For the same compound, the EC50 in assay [2] turned out to be 0.0358 µM. Further, the Emax in assay [2] (setting [3]) was 97.7%.

On to `CC(C)C(=O)NC1CCc2c(c3cc(C#N)ccc3n2Cc2ccccc2N(C)C)C1` (stereo not drawn) [Example 114, N-[6-Cyano-9-furan-(2-dimethylamino-benzyl)-2,3,4,9-tetrahydro-1H-carbazol-3-yl]-isobutyramide], for which, in assay [1], the Ki is 0.0208 µM. In assay [2], this compound came in with an EC50 of 0.0987 µM. Moreover, in assay [2] (setting [3]), the Emax came to 118%.

In assay [1], `CC(C)C(=O)NC1CCc2c(c3cc(C#N)c(F)cc3n2Cc2cccc(F)c2)C1` (stereo not drawn) [Example 115, N-[6-Cyano-7-fluoro-9-(3-fluoro-benzyl)-2,3,4,9-tetrahydro-1H-carbazol-3-yl]-isobutyramide] yielded a Ki of 0.0032 µM. Also, in assay [2], the half-maximal effective concentration (EC50) worked out at 0.0043 µM. The Emax in assay [2] (setting [3]) was determined as 74.7%.

`CC(C)C(=O)NC1CCc2c(c3c(F)c(C#N)ccc3n2Cc2cccc(F)c2)C1` (stereo not drawn) [Example 116, N-[6-Cyano-5-fluoro-9-(3-fluoro-benzyl)-2,3,4,9-tetrahydro-1H-carbazol-3-yl]-isobutyramide] gave a Ki in assay [1] of 0.0034 µM. For the same compound, in assay [2], a half-maximal effect (EC50) was put at 0.0027 µM. In addition, in assay [2] (setting [3]), the Emax amounted to 78.3%.

Turning to `CC(C)C(=O)NC1CCc2c(c3c(Cl)c(C#N)ccc3n2Cc2cccc(F)c2)C1` (stereo not drawn) [Example 117, N-[5-Chloro-6-cyano-9-(3-fluoro-benzyl)-2,3,4,9-tetrahydro-1H-carbazol-3-yl]-isobutyramide], the Ki in assay [1] worked out at 0.0045 µM. The same compound displayed an EC50 in assay [2] of 0.012 µM. Besides, the Emax in assay [2] (setting [3]) amounted to 76.7%.

In assay [1], `CC(C)C(=O)NC1CCc2c(c3cc(C#N)c(Cl)cc3n2Cc2cccc(F)c2)C1` (stereo not drawn) [Example 118, N-[7-Chloro-6-cyano-9-(3-fluoro-benzyl)-2,3,4,9-tetrahydro-1H-carbazol-3-yl]-isobutyramide] returned an inhibition constant (Ki) of 0.0059 µM. In assay [2], this compound came in with an EC50 of 0.0317 µM. For the same compound, the Emax in assay [2] (setting [3]) came to 124%.

Take `CC(C)C(=O)NC1CCc2c(c3cc(C#N)cc(Cl)c3n2Cc2cccc(F)c2)C1` (stereo not drawn) [Example 119, N-[8-Chloro-6-cyano-9-(3-fluoro-benzyl)-2,3,4,9-tetrahydro-1H-carbazol-3-yl]-isobutyramide]: in assay [1] (setting [4]), the inhibitory constant (Ki) was 0.0073 µM. In assay [2] (setting [5]), the Emax turned out to be 99.1%. For the same compound, the EC50 in assay [2] (setting [6]) worked out at 0.0342 µM.

As for `CC(C)C(=O)NC1CCc2c(c3cc(Br)cc(F)c3n2Cc2cccc(F)c2)C1` (stereo not drawn) [Example 120, N-[6-Bromo-8-fluoro-9-(3-fluoro-benzyl)-2,3,4,9-tetrahydro-1H-carbazol-3-yl]-isobutyramide], the affinity in assay [1] corresponds to a Ki of 0.007 µM. In assay [2], this compound yielded an EC50 of 0.0514 µM. In addition, the Emax in assay [2] (setting [3]) was 101%.

Regarding `CC(C)C(=O)NC1CCc2c(c3cc(C#N)cc(F)c3n2Cc2cccc(F)c2)C1` (stereo not drawn) [Example 121, N-[6-Cyano-8-fluoro-9-(3-fluoro-benzyl)-2,3,4,9-tetrahydro-1H-carbazol-3-yl]-isobutyramide], the affinity in assay [1] corresponds to a Ki of 0.0029 µM. The EC50 in assay [2] was determined as 0.0062 µM. The Emax in assay [2] (setting [3]) was 110%.

The compound `CC(C)C(=O)N[C@@H]1CCc2c(c3cc(-c4nnc(N)s4)ccc3n2Cc2cccc(F)c2)C1` [Example 126, (R)-N-[6-(5-Amino[1,3,4]thiadiazol-2-yl)-9-(3-fluorobenzyl)-2,3,4,9-tetrahydro-1H-carbazol-3-yl]isobutyramide] returned a Ki in assay [1] of 0.019 µM. In assay [2], this compound returned an EC50 of 0.0313 µM. For the same compound, the Emax in assay [2] (setting [3]) was 87%.

As to `CC(C)C(=O)N[C@@H]1CCc2c(c3cc(-c4nncs4)ccc3n2Cc2cccc(F)c2)C1` [Example 127, (R)-N-[9-(3-Fluorobenzyl)-6-[1,3,4]thiadiazole-2-yl-2,3,4,9-tetrahydro-1H-carbazol-3-yl]isobutyramide], in assay [1] (setting [4]), the Ki amounted to 0.0104 µM. In assay [2] (setting [5]), the Emax came to 72.2%. For the same compound, the EC50 in assay [2] (setting [6]) worked out at 0.021 µM.

Compound `Cc1csc(-c2ccc3c(c2)c2c(n3Cc3cccc(F)c3)CC[C@@H](NC(=O)C(C)C)C2)n1` [Example 128, (R)-N-[9-(3-Fluorobenzyl)-6-(4-methylthiazol-2-yl)-2,3,4,9-tetrahydro-1H-carbazol-3-yl]isobutyramide] came in with a Ki in assay [1] of 0.043 µM. For the same compound, the EC50 in assay [2] is 0.236 µM. Also, the Emax in assay [2] (setting [3]) was determined as 72.5%.

In turn, `Cc1nc(-c2ccc3c(c2)c2c(n3Cc3cccc(F)c3)CC[C@@H](NC(=O)C(C)C)C2)sc1C` [Example 129] displayed an inhibitory constant (Ki) in assay [1] of 0.196 µM. The compound also gave an EC50 in assay [2] of 0.0736 µM. The Emax in assay [2] (setting [3]) came out at 65.5%.

For the compound `CC(C)C(=O)NC1CCc2c(c3cc(-c4cccnc4)ccc3n2Cc2cccc(F)c2)C1` (stereo not drawn) [Example 132], the Ki in assay [1] amounted to 0.0074 µM. Further, in assay [2], the EC50 is 0.0054 µM. In addition, the Emax in assay [2] (setting [3]) was found to be 83.9%.
